Columns and labels:
[1] = tested on: COR L23 R (MRP+) cells; conditions: doxorubicin 10 mg/ml alone or with sulindac 20 mg/ml, 1, 2, 4 h, FIG. 3
Description: 10^6 COR L23 P (parental non-MRP resistant, MRP−) or COR L23 R (MRP resistant, MRP+) cells were added to 75 cm^3 vented flasks containing HEPES buffered Rosemount Park Memorial Institute (RPMI) medium and maintained at 37° C. in a 5% CO2 atmosphere. […] After three days of growth, doxorubicin (final concentration 10 mg/ml), sulindac (final concentration 20 mg/ml) or doxorubicin and sulindac were added to individual flasks. Samples were taken after 1, 2 and 4 h. and assayed for drug content.
The contents of each flask were washed twice with 5 ml of PBS and stored at −70° C. The flasks were thawed and 100 μl of water and 100 μl of 33% silver nitrate added to each and mixed for 5 min. […]
The extract was resuspended in 50 μl of methanol in the sample vial and loaded into the HPLC autosampler. […] The mobile phases were pumped through a C18 reversed-phase Ultrasphere XL (Beckman) HPLC column (4.6×70 mm) with absorbance measured at 253 nm. […] The amount of doxorubicin and sulindac present was quantified by measuring the peak height of these drugs and the internal standard. […] The concentration of doxorubicin in the samples was calculated from the) nd development standard line using the peak height ratio. The sulindac concentrations were calculated by the same method.

[2] = tested on: DLKP-A cell line; experiment: miniaturised in vitro colorimetric cell survival assay, P-170 overexpressing DLKP-A; type: cell-based, human
Description: (§1) All the results presented in this Example for the DLKP, A549 and OAW42-SR cell lines were derived using the same miniaturised in vitro calorimetric assay system. On Day 1 of the assay 1000 cells/well/100 μl were plated into 96-well plates. Cells were allowed to attach overnight and cell viability was visually assessed. On Day 2 the two drugs (i.e. NSAID plus chemotherapeutic drug) to be analysed were added onto the cells. The individual drugs were added separately in 50 μl quantities (4× stocks, to take into account the dilution effect of having 200 μl final volume in each well). The drugs were left on the cells for five further days (Day 7) and cell number was determined using the acid phosphatase end-point assay which uses p-nitrophenol phosphate as substrate (Martin, A. and Clynes, M. (1991) In Vitro Dev. Biol., 27A, 183-184). On Day 7 the culture medium was removed from the cells and they were washed once with phosphate buffered saline (PBS). After washing, 100 μl of freshly prepared substrate-containing buffer (0.1% Triton X-100 in 0.1M sodium acetate, pH 5.5) was added to each well and the plates were left in an incubator at 37° C. for 2 h. After the incubation period 50 μl of 1N NaOH was added to each well to develop the colour. The plates were then read at 405 nm (reference 620 nm) on an ELISA plate-reader.
In the results given below the % cell survival in the drug-free control is 100%. All results are the cell survival means ±S.D. from a minimum of three experiments.
v) is an example of a positive NSAID plus a positive drug on a P-170 overexpressing cell line: DLKP-A;

[3] = tested on: DLKP-7 cells; experiment: adriamycin efflux from loaded cells, HPLC; type: cell-based
Description: DLKP-7 cells were seeded into 75 cm^2 flasks at 0.5×10^6 cells/10 ml ATCC medium. The cells were left for 2 days, the ATCC medium was removed and fresh medium containing adriamycin (0.5 μg/ml) was added. Following a 2 hour incubation this medium was removed, the flasks were washed twice with PBS, 10 ml ATCC medium or ATCC medium containing the test NSAID was added, and the cells were incubated for a further 4 hr. The cells were trypsinised and the pellet was frozen at −20° C. Duplicate flasks for each time point were prepared. The NSAIDs used were indomethacin 10 μg/ml and piroxicam 20 μg/ml.
The amount of adriamycin in the cells was quantified using liquid-liquid extraction and reverse-phase HPLC analysis. The frozen cell pellets were thawed and resuspended in […] of water/100 μl of 33% silver nitrate and mixed for 5 min. 300 μl of methanol, containing 1.5 μg of daunorubicin as an internal standard (IS), and 1.3 ml of acetonitrile were then added and the tubes mixed for a further 5 min. The mixture was transferred to glass tubes and kept at 4° C. for 1 hr. The tubes were then centrifuged at 1000 g for 15 min. to pellet any solid material. 1.1 ml of the supernatant was removed to HPLC autosampler vials (Labquip, Dublin, Ireland). The solvent was evaporated off at room temperature under a stream of nitrogen gas.
The extract was resuspended in 50 μl of mobile phase 1 (MP1): 32 ml of 0.1 M phosphoric acid mixed with 244 ml of ultrapure water, pH: 2.3 (adjusted upwards with a few drops of 1N potassium hydroxide) to which 124 ml of acetonitrile was added and the final mixture was degassed in a sonicating bath for 5 min. The second mobile phase (MP2) consisted of acetonitrile. The resuspended sample (20 μl) was automatically injected into the HPLC system. The HPLC system comprised a Beckman System Gold 507 autosampler, 125 pump and 166 detector. The MP was pumped through a C18 reversed-phase Prodigy 5 μm particle size ODS-3 column (Phenomenex, Macclesfield, England) (dimensions 150×4.6mm) and absorbance was measured at 253 nm. For the first 14 min. of the chromatographic run MP 1 was pumped at 0.5 ml/min. From 14 min. to 20 min. the column was switched to MP 2. At 20 min. the column was switched back to MP 1 and the flow rate increased to 1 ml/min. At 30 min. the flow rate was brought back to 0.5 ml/min. The run continued for a further 5 min. giving a total run time of 35 min. The amount of adriamycin present was quantified by measuring its peak area and the peak area of the IS. The peak area of the adriamycin was divided by the area of the IS peak and the ratio plotted against a concentration series for spiked adriamycin samples.

[4] = tested on: murine and human cultured tumour cells; conditions: non-toxic concentrations of indomethacin; in vitro; cited from earlier work
[5] = tested on: OAW42-SR cell line; experiment: miniaturised in vitro colorimetric cell survival assay, LRP overexpressing OAW42-SR; type: cell-based, human; conditions: alone or + Adriamycin 147 ng/ml
Description: as §1, with “After washing, 100 μl of freshly prepared substrate-containing buffer (0.1% Triton X-100 in 0.1M sodium acetate, pH 5.5) was added to each well and the plates were left in an incubator at 37° C. for 2 h.” left out, “plate-reader. […] All results are the cell survival means ±S.D. from a minimum of three experiments.” for “plate-reader.”

[6] = tested on: GSTs; conditions: cited from earlier work

Question: With CC1=C(CC(=O)O)c2cc(F)ccc2/C1=C\c1ccc([S+](C)[O-])cc1 (stereo not drawn) [Sulindac, sulindac] as the molecule, how does the “doxorubicin level in the cells” value [1] read?
Answer: the doxorubicin level in the cells is increased to near that found in the MRP—cells

Question: And the “% cell survival” value ([2]; v) Sulindac 1.5 μg/ml, alone or + Vincristine 1.0 μg/ml)?
Answer: 108.9 ± 8.0%

Question: And the “% cell survival” value ([2]; v) Sulindac 3 μg/ml, alone or + Vincristine 1.0 μg/ml)?
Answer: 86.30 ± 13.7%

Question: And the “% cell survival” value ([2]; v) Sulindac alone (concentration not given) or Sulindac 6 μg/ml + Vincristine 1.0 μg/ml)?
Answer: 105.7 ± 5.2%

Question: Which results are given for COc1ccc2c(c1)c(CC(=O)O)c(C)n2C(=O)c1ccc(Cl)cc1 [Indomethacin, indomethacin]?
Answer: % Adriamycin content at 0 h ([3]; cells loaded with adriamycin 0.5 μg/ml 2 h, indomethacin 10 μg/ml, piroxicam 20 μg/ml, 0 h): 100%; % Adriamycin content at 4 h ([3]; cells loaded with adriamycin 0.5 μg/ml 2 h, indomethacin 10 μg/ml, piroxicam 20 μg/ml, 4 h): 109 ± 4%; level of adriamycin within the treated cells ([3]; during the 4 hours of the experiment): remained constant during the 4 hours of the experiment; enhancement of VP-16 sensitivity [4]: enhanced the VP-16 sensitivity of a variety of cancer cell lines; % cell survival ([5]; vi) Indomethacin 0.625 μg/ml): 99.26 ± 3.7%; % cell survival ([5]; vi) Indomethacin 1.25 μg/ml): 97.67 ± 1.3%; % cell survival ([5]; vi) Indomethacin 2.5 μg/ml): 95.60 ± 3.3%; inhibition of GSTs [6]: inhibitor of GSTs

From patent publication US6413937B1, “Combinations for use in increasing the potency of a substrate for multidrug resistance related protein” (Dublin City University and Enterprise Ireland, priority 1996, dated 2002)
